Assay results taken from US20250163047A1, “HETEROCYCLIC COMPOUNDS, COMPOSITIONS THEREOF, AND METHODS OF TREATMENT THEREWITH” (BeiGene, Ltd., priority 2022, published 2025).

Key:
[1] = biological target: T1, Cbl (aa49-434) (Homo sapiens, UniProt P22681); assay: Co-expressed Cbl with BirA biochemical assay (CBL/E2-Ub binding, HTRF); conditions: 0.6 nM Cbl co-expressed with BirA, read-out: co-express CBL/E2-Ub-binding assay IC50
T1 construct: Cbl (aa49-434, in-house); made in house
T1 sequence (P22681 49-434): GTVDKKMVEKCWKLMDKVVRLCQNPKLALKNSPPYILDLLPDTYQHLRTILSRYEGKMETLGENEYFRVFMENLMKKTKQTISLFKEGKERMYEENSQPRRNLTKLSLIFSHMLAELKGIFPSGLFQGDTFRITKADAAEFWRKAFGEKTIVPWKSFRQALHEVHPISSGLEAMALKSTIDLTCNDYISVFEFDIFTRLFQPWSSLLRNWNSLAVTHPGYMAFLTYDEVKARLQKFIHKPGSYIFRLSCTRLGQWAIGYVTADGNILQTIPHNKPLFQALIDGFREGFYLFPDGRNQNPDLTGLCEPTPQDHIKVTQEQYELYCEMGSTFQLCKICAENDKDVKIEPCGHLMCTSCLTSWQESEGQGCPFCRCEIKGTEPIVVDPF
From the text: (§1) The assay in the absence of a Cbl-b/Cbl inhibitor, where phosphorylation of Cbl-b/Cbl by the Src kinase allows UbcH5B-Ub to bind to Cbl-b/Cbl and brings the Bodipy-Fluorescein tagged ubiquitin in proximity to the streptavidin-terbium bound to the N-terminal biotinylated Avi-tagged Cbl-b/Cbl. […] The lack of a FRET signal indicates Cbl-b/Cbl is inhibited by the Cbl-b/Cbl inhibitor.

[2] = biological target: T2, Cbl-b (aa36-427) (Homo sapiens, UniProt Q13191); assay: Co-expressed Cbl-b with BirA biochemical assay (CBLB/E2-Ub binding, HTRF); conditions: 0.6 nM Cbl-b co-expressed with BirA, HTRF; read-out: co-express CBLB/E2-Ub-binding assay IC50
T2 construct: Cbl-b (aa36-427, in-house); made in house
T2 sequence (Q13191 36-427): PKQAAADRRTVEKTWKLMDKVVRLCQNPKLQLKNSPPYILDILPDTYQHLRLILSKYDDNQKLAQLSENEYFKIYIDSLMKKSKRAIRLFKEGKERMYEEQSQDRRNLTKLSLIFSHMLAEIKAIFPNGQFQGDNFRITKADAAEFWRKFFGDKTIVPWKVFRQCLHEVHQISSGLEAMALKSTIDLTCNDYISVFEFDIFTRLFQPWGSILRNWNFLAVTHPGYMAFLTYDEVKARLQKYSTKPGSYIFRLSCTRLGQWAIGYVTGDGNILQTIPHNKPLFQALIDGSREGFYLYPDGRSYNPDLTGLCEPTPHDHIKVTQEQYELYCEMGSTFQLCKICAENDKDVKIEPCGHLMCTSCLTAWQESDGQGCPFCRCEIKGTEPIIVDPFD
From the text: as §1

| Structure (SMILES) | IC50 [1] [nM] | IC50 [2] [nM] |
| --- | --- | --- |
| Cn1ccc2nc(C(=O)Nc3cccc([C@]4(c5nncn5C)C[C@@H](CC#N)C4)c3)cc(CNC3(C)CC3)c21 [Compound B57, N-(3-((1s, 3s)-3-(cyanomethyl)-1-(4-methyl-4H-1,2,4-triazol-3-yl)cyclobutyl)phenyl)-1-methyl-7-(((1-methylcyclopropyl)amino)methyl)-1H-pyrrolo[3,2-b]pyridine-5-carboxamide] | 15 | 1.3 |
| Cn1cnnc1[C@]1(c2cccc(NC(=O)c3cc(CNC4(C)CC4)cn4c(Cl)cnc34)c2)C[C@H](C)C1 [Compound A67, 3-chloro-N-(3-((1s, 3s)-3-methyl-1-(4-methyl-4H-1,2,4-triazol-3-yl)cyclobutyl)phenyl)-6-(((1-methylcyclopropyl)amino)methyl)imidazo[1,2-a]pyridine-8-carboxamide] | 2.8 | 0.5 |
| Cn1cnnc1[C@]1(c2cccc(NC(=O)c3cc(CNCC4(C)CCCC4)cn4ccnc34)c2)C[C@H](CC#N)C1 [Compound A15, N-(3-((1s, 3s)-3-(cyanomethyl)-1-(4-methyl-4H-1,2,4-triazol-3-yl)cyclobutyl)phenyl)-6-((((1-methylcyclopentyl)methyl)amino)methyl)imidazo[1,2-a]pyridine-8-carboxamide] | 4 | 0.9 |
| CC(C)CNCc1cc(C(=O)Nc2cccc([C@]3(c4nncn4C)C[C@@H](CC#N)C3)c2)nc2cc[nH]c12 [Compound B29, N-(3-((1s, 3s)-3-(cyanomethyl)-1-(4-methyl-4H-1,2,4-triazol-3-yl)cyclobutyl)phenyl)-7-((isobutylamino)methyl)-1H-pyrrolo[3,2-b]pyridine-5-carboxamide] | 2.3 | 1.2 |
| Cn1cnnc1[C@]1(c2cccc(NC(=O)c3cc(CNCC4CCCC4)cn4c(Cl)cnc34)c2)C[C@H](C)C1 [Compound A68, 3-chloro-6-(((cyclopentylmethyl)amino)methyl)-N-(3-((1s, 3s)-3-methyl-1-(4-methyl-4H-1,2,4-triazol-3-yl)cyclobutyl)phenyl)imidazo[1,2-a]pyridine-8-carboxamide] | 2.9 | 0.9 |
| C[C@H]1CCCN(Cc2cc(C(=O)Nc3cccc([C@]4(c5nncn5C)C[C@@H](CC#N)C4)c3)nc3sccc23)C1 [Compound B18, 4-{[(3S)-3-methylpiperidin-1-yl]methyl}-N-{3-[(1s, 3s)-3-(cyanomethyl)-1-(4-methyl-1,2,4-triazol-3-yl)cyclobutyl]phenyl}thieno[2,3-b]pyridine-6-carboxamide] | 13 | 1.6 |
| CC[C@H](C)NCc1cc(C(=O)Nc2cncc([C@]3(c4nncn4C)C[C@@H](C)C3)c2)nc2cc[nH]c12 [Compound B47, 7-((((S)-sec-butyl)amino)methyl)-N-(5-((1s,3R)-3-methyl-1-(4-methyl-4H-1,2,4-triazol-3-yl)cyclobutyl)pyridin-3-yl)-1H-pyrrolo[3,2-b]pyridine-5-carboxamide] | 6.1 | 2.2 |
| Cn1cnnc1[C@]1(c2cccc(NC(=O)c3cc(CNC4(C)CC4)c4[nH]cc(Cl)c4n3)c2)C[C@H](CC#N)C1 [Compound B24, 3-chloro-N-(3-((1s, 3s)-3-(cyanomethyl)-1-(4-methyl-4H-1,2,4-triazol-3-yl)cyclobutyl)phenyl)-7-(((1-methylcyclopropyl)amino)methyl)-1H-pyrrolo[3,2-b]pyridine-5-carboxamide] | 17 | 0.9 |
| CC[C@H](C)NCc1cc(C(=O)Nc2cncc([C@]3(c4nncn4C)C[C@@H](C)C3)c2)c2nccn2c1 [Compound A49, 6-((((S)-sec-butyl)amino)methyl)-N-(5-((1s,3R)-3-methyl-1-(4-methyl-4H-1,2,4-triazol-3-yl)cyclobutyl)pyridin-3-yl)imidazo[1,2-a]pyridine-8-carboxamide] | 11.9 | 3 |
| Cc1cnc2c(C(=O)Nc3cccc([C@]4(c5nncn5C)C[C@@H](CC#N)C4)c3)cc(CN3CC[C@H](F)[C@H](C)C3)cn12 [Compound A47, N-(3-((1s,3S)-3-(cyanomethyl)-1-(4-methyl-4H-1,2,4-triazol-3-yl)cyclobutyl)phenyl)-6-(((3R,4S)-4-fluoro-3-methylpiperidin-1-yl)methyl)-3-methylimidazo[1,2-a]pyridine-8-carboxamide] | 7 | 1.4 |
| Cc1cnc2c(C(=O)Nc3cncc([C@]4(c5nncn5C)C[C@@H](C)C4)c3)cc(CN[C@@H](C)C3CCC3)cn12 [Compound A63, 6-({[(1S)-1-cyclobutylethyl]amino}methyl)-3-methyl-N-{5-[(1r, 3s)-3-methyl-1-(4-methyl-1,2,4-triazol-3-yl)cyclobutyl]pyridin-3-yl}imidazo[1,2-a]pyridine-8-carboxamide] | 1.8 | 1.1 |
| Cn1cnnc1[C@]1(c2cccc(NC(=O)c3cc(CNCC4CCCC4)cn4c(F)cnc34)c2)C[C@H](C)C1 [Compound A51, 6-(((cyclopentylmethyl)amino)methyl)-3-fluoro-N-(3-((1s, 3s)-3-methyl-1-(4-methyl-4H-1,2,4-triazol-3-yl)cyclobutyl)phenyl)imidazo[1,2-a]pyridine-8-carboxamide] | 4.3 | 1.5 |
| Cc1cnc2c(C(=O)Nc3cccc([C@]4(c5nncn5C)C[C@@H](C)C4)c3)cc(CN[C@@H](C)C3CC3)cn12 [Compound A59, 6-((((S)-1-cyclopropylethyl)amino)methyl)-3-methyl-N-(3-((1s,3R)-3-methyl-1-(4-methyl-4H-1,2,4-triazol-3-yl)cyclobutyl)phenyl)imidazo[1,2-a]pyridine-8-carboxamide] | 5.3 | 1.7 |
| Cn1cnnc1[C@]1(c2cncc(NC(=O)c3cc(CNC4(C)CC4)cc4c(F)cnn34)c2)C[C@H](C)C1 [Compound A93, 3-fluoro-N-(5-((1s, 3s)-3-methyl-1-(4-methyl-4H-1,2,4-triazol-3-yl)cyclobutyl)pyridin-3-yl)-5-(((1-methylcyclopropyl)amino)methyl)pyrazolo[1,5-a]pyridine-7-carboxamide] | 5.2 | 1.6 |

Next, values leading:

| IC50 [1] [nM] | IC50 [2] [nM] | Structure (SMILES) |
| --- | --- | --- |
| 2.4 | 0.9 | Cn1cnnc1[C@]1(c2cccc(NC(=O)c3cc(CNCC4(C)CCC4)c4c(n3)C(C)(C)CC4)c2)C[C@H](CC#N)C1 [Compound C37, N-(3-((1s, 3s)-3-(cyanomethyl)-1-(4-methyl-4H-1,2,4-triazol-3-yl)cyclobutyl)phenyl)-7,7-dimethyl-4-((((1-methylcyclobutyl)methyl)amino)methyl)-6,7-dihydro-5H-cyclopenta[b]pyridine-2-carboxamide] |
| 5.2 | 1.8 | Cn1cnnc1C[C@]1(c2cccc(NC(=O)c3cc(CNCC4CCCC(F)(F)C4)c4c(n3)C(C)(C)CC4)c2)C[C@H](C#N)C1 (stereo partly shown) [Compound C15, N-(3-((1r, 3r)-3-cyano-1-((4-methyl-4H-1,2,4-triazol-3-yl)methyl)cyclobutyl)phenyl)-4-((((3,3-difluorocyclohexyl)methyl)amino)methyl)-7,7-dimethyl-6,7-dihydro-5H-cyclopenta[b]pyridine-2-carboxamide] |
| 3.3 | 1.5 | Cn1cnnc1C[C@]1(c2cccc(NC(=O)c3cc(CNC4(C)CC4)c4c(n3)C(C)(C)CN4)c2)C[C@H](C#N)C1 [Compound C44, 3,3-dimethyl-7-{[(1-methylcyclopropyl)amino]methyl}-N-{3-[(1r, 3r)-3-cyano-1-[(4-methyl-1,2,4-triazol-3-yl)methyl]cyclobutyl]phenyl}-1H,2H-pyrrolo[3,2-b]pyridine-5-carboxamide] |
| 14.8 | 3.3 | Cn1cnnc1[C@]1(c2cncc(NC(=O)c3cc(CNCC4CCC4)c4c(n3)C(F)(F)CC4)c2)C[C@H](C)C1 [Compound C52, 4-{[(cyclobutylmethyl)amino]methyl}-7,7-difluoro-N-{5-[(1r, 3s)-3-methyl-1-(4-methyl-1,2,4-triazol-3-yl)cyclobutyl]pyridin-3-yl}-5H,6H-cyclopenta[b]pyridine-2-carboxamide] |
| 0.8 | 0.7 | C[C@@H]1CN(Cc2cc(C(=O)Nc3cccc([C@]4(c5nncn5C)C[C@@H](C)C4)c3)nc3c2NCC32CC2)CC[C@@H]1F [Compound C50, 7′-(((3R,4S)-4-fluoro-3-methylpiperidin-1-yl)methyl)-N-(3-((1s,3S)-3-methyl-1-(4-methyl-4H-1,2,4-triazol-3-yl)cyclobutyl)phenyl)-1′,2′-dihydrospiro[cyclopropane-1,3′-pyrrolo[3,2-b]pyridine]-5′-carboxamide] |
| 3.5 | 1 | C[C@H](NCc1cc(C(=O)Nc2cccc([C@]3(c4nncn4C)C[C@@H](CC#N)C3)c2)nc2c1NCC2(C)C)C1CC1 [Compound C27, 7-({[(1S)-1-cyclopropylethyl]amino}methyl)-3,3-dimethyl-N-{3-[(1s, 3s)-3-(cyanomethyl)-1-(4-methyl-1,2,4-triazol-3-yl)cyclobutyl]phenyl}-1H,2H-pyrrolo[3,2-b]pyridine-5-carboxamide] |
